Results: the supplement of paper PMC10307832

Columns and labels:
Assay in all cases: relative viability (nuclei count vs DMSO), 5 days (fraction); higher = more cells survive
[1] = compound: CC[C@@H]1C(=O)N(C)c2cnc(Nc3ccc(C(=O)NC4CCN(C)CC4)cc3OC)nc2N1C1CCCC1 [BI-2536] + CS(=O)(=O)CCNCc1ccc(-c2ccc3ncnc(Nc4ccc(OCc5cccc(F)c5)c(Cl)c4)c3c2)o1 [Lapatinib] (partner 2 µM)
Procedure, shortened: (§1)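 Dosing by pin tool came one day after lung cancer cell lines were seeded in 1536-well plates, using either one drug or a fixed anchor-drug dose plus five library-drug doses (not always all listed) in √10 steps. After 5 days, nuclei were counted on 4× images. Relative viability is treated-well nuclei count divided by vehicle-well nuclei count, and values are medians of duplicate plates.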

[2] = compound: CC[C@@H]1C(=O)N(C)c2cnc(Nc3ccc(C(=O)NC4CCN(C)CC4)cc3OC)nc2N1C1CCCC1 [BI-2536] + Cc1nc(NC(=O)N2CCC[C@H]2C(N)=O)sc1-c1ccnc(C(C)(C)C(F)(F)F)c1 [Alpelisib] (partner 2 µM)
Procedure, shortened: as §1

[3] = compound: CC1CC(=O)N(C2=CN=C(N=C2N1C3CCCC3)NC4=C(C=C(C=C4)C(=O)NC5CCN(CC5)C)OC)C [NPK76-II-72-1] + O=C(CCCCCCC(=O)Nc1ccccc1)NO [Vorinostat] (partner 1 µM)
Procedure, shortened: as §1

[4] = compound: CC1CC(=O)N(C2=CN=C(N=C2N1C3CCCC3)NC4=C(C=C(C=C4)C(=O)NC5CCN(CC5)C)OC)C [NPK76-II-72-1] + Nc1ncn([C@H]2C[C@H](O)[C@@H](CO)O2)c(=O)n1 [Decitabine] (partner 2 µM)
Procedure, shortened: as §1

NCI-H2405 showed a relative viability ([1]; first compound 0.01 µM) of 1.01, a relative viability ([1]; first compound 0.03162 µM) of 0.97 and a relative viability ([1]; first compound 0.1 µM) of 0.301. The relative viability ([1]; first compound 0.3162 µM) was 0.146, the relative viability ([1]; first compound 1 µM) was 0.448 and the relative viability ([2]; first compound 0.01 µM) was 0.665. It also gave a relative viability ([2]; first compound 0.03162 µM) of 0.408, a relative viability ([2]; first compound 0.1 µM) of 0.374 and a relative viability ([2]; first compound 0.3162 µM) of 0.132. It also gave a relative viability ([2]; first compound 1 µM) of 0.365, a relative viability ([3]; first compound 0.01 µM) of 0.949 and a relative viability ([3]; first compound 0.03162 µM) of 0.791. For the same cell line, the relative viability ([3]; first compound 0.1 µM) was 1.04, the relative viability ([3]; first compound 0.3162 µM) was 1.07 and the relative viability ([3]; first compound 1 µM) was 1.03. The relative viability ([4]; first compound 0.01 µM) was 0.74, the relative viability ([4]; first compound 0.03162 µM) was 0.789 and the relative viability ([4]; first compound 0.1 µM) was 0.719. The relative viability ([4]; first compound 0.3162 µM) was 0.629 and the relative viability ([4]; first compound 1 µM) was 0.862.
For NCI-H3122, the relative viability ([1]; first compound 0.01 µM) was 0.943, the relative viability ([1]; first compound 0.03162 µM) was 1.07 and the relative viability ([1]; first compound 0.1 µM) was 0.296. The relative viability ([1]; first compound 0.3162 µM) was 0.258, the relative viability ([1]; first compound 1 µM) was 0.228 and the relative viability ([2]; first compound 0.01 µM) was 0.877. For the same cell line, the relative viability ([2]; first compound 0.03162 µM) was 0.662, the relative viability ([2]; first compound 0.1 µM) was 0.354 and the relative viability ([2]; first compound 0.3162 µM) was 0.198. It also gave a relative viability ([2]; first compound 1 µM) of 0.203, a relative viability ([3]; first compound 0.01 µM) of 0.943 and a relative viability ([3]; first compound 0.03162 µM) of 0.923. It also gave a relative viability ([3]; first compound 0.1 µM) of 1.05, a relative viability ([3]; first compound 0.3162 µM) of 1.05 and a relative viability ([3]; first compound 1 µM) of 1.05. The relative viability ([4]; first compound 0.01 µM) was 0.361, the relative viability ([4]; first compound 0.03162 µM) was 0.431 and the relative viability ([4]; first compound 0.1 µM) was 0.471. For the same cell line, the relative viability ([4]; first compound 0.3162 µM) was 0.424 and the relative viability ([4]; first compound 1 µM) was 0.438.
PC-3 [JPC-3] was tested, and the relative viability ([1]; first compound 0.01 µM) was 0.462, the relative viability ([1]; first compound 0.03162 µM) was 0.456 and the relative viability ([1]; first compound 0.1 µM) was 0.441. For the same cell line, the relative viability ([1]; first compound 0.3162 µM) was 0.451, the relative viability ([1]; first compound 1 µM) was 0.233 and the relative viability ([2]; first compound 0.01 µM) was 1.13. For the same cell line, the relative viability ([2]; first compound 0.03162 µM) was 0.978, the relative viability ([2]; first compound 0.1 µM) was 0.871 and the relative viability ([2]; first compound 0.3162 µM) was 0.264. For the same cell line, the relative viability ([2]; first compound 1 µM) was 0.24, the relative viability ([3]; first compound 0.01 µM) was 0.807 and the relative viability ([3]; first compound 0.1 µM) was 0.799. It also gave a relative viability ([3]; first compound 0.3162 µM) of 0.848, a relative viability ([3]; first compound 1 µM) of 0.905 and a relative viability ([4]; first compound 0.01 µM) of 0.811. The relative viability ([4]; first compound 0.1 µM) was 0.882, the relative viability ([4]; first compound 0.3162 µM) was 0.878 and the relative viability ([4]; first compound 1 µM) was 0.95.
In the case of PC-14, the relative viability ([1]; first compound 0.01 µM) is reported as 0.323, the relative viability ([1]; first compound 0.03162 µM) is reported as 0.408 and the relative viability ([1]; first compound 0.1 µM) is reported as 0.342. The relative viability ([1]; first compound 0.3162 µM) was 0.0746, the relative viability ([1]; first compound 1 µM) was 0.0774 and the relative viability ([2]; first compound 0.01 µM) was 0.951. For the same cell line, the relative viability ([2]; first compound 0.03162 µM) was 0.891, the relative viability ([2]; first compound 0.1 µM) was 0.877 and the relative viability ([2]; first compound 0.3162 µM) was 0.0726. It also gave a relative viability ([2]; first compound 1 µM) of 0.0642, a relative viability ([3]; first compound 0.01 µM) of 0.717 and a relative viability ([3]; first compound 0.03162 µM) of 0.73. For the same cell line, the relative viability ([3]; first compound 0.1 µM) was 0.684, the relative viability ([3]; first compound 0.3162 µM) was 0.698 and the relative viability ([3]; first compound 1 µM) was 0.807. The relative viability ([4]; first compound 0.01 µM) was 0.206, the relative viability ([4]; first compound 0.03162 µM) was 0.286 and the relative viability ([4]; first compound 0.1 µM) was 0.226. It also gave a relative viability ([4]; first compound 0.3162 µM) of 0.259 and a relative viability ([4]; first compound 1 µM) of 0.222.
With RERF-LC-KJ the relative viability ([1]; first compound 0.01 µM) was 0.862, the relative viability ([1]; first compound 0.03162 µM) was 0.842 and the relative viability ([1]; first compound 0.1 µM) was 0.775. The relative viability ([1]; first compound 0.3162 µM) was 0.179, the relative viability ([1]; first compound 1 µM) was 0.206 and the relative viability ([2]; first compound 0.01 µM) was 0.697. The relative viability ([2]; first compound 0.03162 µM) was 0.724, the relative viability ([2]; first compound 0.1 µM) was 0.675 and the relative viability ([2]; first compound 0.3162 µM) was 0.195. It also gave a relative viability ([2]; first compound 1 µM) of 0.208, a relative viability ([3]; first compound 0.01 µM) of 0.639 and a relative viability ([3]; first compound 0.03162 µM) of 0.725. For the same cell line, the relative viability ([3]; first compound 0.1 µM) was 0.662, the relative viability ([3]; first compound 0.3162 µM) was 0.701 and the relative viability ([3]; first compound 1 µM) was 0.673. The relative viability ([4]; first compound 0.01 µM) was 0.783, the relative viability ([4]; first compound 0.03162 µM) was 0.762 and the relative viability ([4]; first compound 0.1 µM) was 0.82. It also gave a relative viability ([4]; first compound 0.3162 µM) of 0.617 and a relative viability ([4]; first compound 1 µM) of 0.699.
Work on SK-LU-1 yielded a relative viability ([1]; first compound 0.01 µM) of 0.815, a relative viability ([1]; first compound 0.03162 µM) of 0.715 and a relative viability ([1]; first compound 0.1 µM) of 0.495. The relative viability ([1]; first compound 0.3162 µM) was 0.252, the relative viability ([1]; first compound 1 µM) was 0.189 and the relative viability ([2]; first compound 0.01 µM) was 1.03. It also gave a relative viability ([2]; first compound 0.03162 µM) of 0.507, a relative viability ([2]; first compound 0.1 µM) of 0.317 and a relative viability ([2]; first compound 0.3162 µM) of 0.28. The relative viability ([2]; first compound 1 µM) was 0.244, the relative viability ([3]; first compound 0.01 µM) was 0.722 and the relative viability ([3]; first compound 0.03162 µM) was 0.77. For the same cell line, the relative viability ([3]; first compound 0.1 µM) was 0.756, the relative viability ([3]; first compound 0.3162 µM) was 0.77 and the relative viability ([3]; first compound 1 µM) was 0.851. It also gave a relative viability ([4]; first compound 0.01 µM) of 0.626, a relative viability ([4]; first compound 0.03162 µM) of 0.63 and a relative viability ([4]; first compound 0.1 µM) of 0.64. It also gave a relative viability ([4]; first compound 0.3162 µM) of 0.582 and a relative viability ([4]; first compound 1 µM) of 0.615.
With SK-MES-1 the relative viability ([1]; first compound 0.01 µM) was 0.465, the relative viability ([1]; first compound 0.03162 µM) was 0.45 and the relative viability ([1]; first compound 0.1 µM) was 0.503. For the same cell line, the relative viability ([1]; first compound 0.3162 µM) was 0.213, the relative viability ([1]; first compound 1 µM) was 0.186 and the relative viability ([2]; first compound 0.01 µM) was 0.869. It also gave a relative viability ([2]; first compound 0.03162 µM) of 0.957, a relative viability ([2]; first compound 0.1 µM) of 0.786 and a relative viability ([2]; first compound 0.3162 µM) of 0.147. For the same cell line, the relative viability ([2]; first compound 1 µM) was 0.186, the relative viability ([3]; first compound 0.01 µM) was 1.06 and the relative viability ([3]; first compound 0.03162 µM) was 1.05. It also gave a relative viability ([3]; first compound 0.1 µM) of 1.12, a relative viability ([3]; first compound 0.3162 µM) of 1.17 and a relative viability ([3]; first compound 1 µM) of 1.22. The relative viability ([4]; first compound 0.01 µM) was 0.359, the relative viability ([4]; first compound 0.03162 µM) was 0.441 and the relative viability ([4]; first compound 0.1 µM) was 0.434. It also gave a relative viability ([4]; first compound 0.3162 µM) of 0.364 and a relative viability ([4]; first compound 1 µM) of 0.455.
With SW 1573 the relative viability ([1]; first compound 0.01 µM) was 1.1, the relative viability ([1]; first compound 0.03162 µM) was 1.2 and the relative viability ([1]; first compound 0.1 µM) was 1.12. The relative viability ([1]; first compound 0.3162 µM) was 0.186, the relative viability ([1]; first compound 1 µM) was 0.18 and the relative viability ([2]; first compound 0.01 µM) was 0.821. The relative viability ([2]; first compound 0.03162 µM) was 0.842, the relative viability ([2]; first compound 0.1 µM) was 0.791 and the relative viability ([2]; first compound 0.3162 µM) was 0.162. It also gave a relative viability ([2]; first compound 1 µM) of 0.123, a relative viability ([3]; first compound 0.01 µM) of 0.787 and a relative viability ([3]; first compound 0.03162 µM) of 0.916. The relative viability ([3]; first compound 0.1 µM) was 0.637, the relative viability ([3]; first compound 0.3162 µM) was 0.532 and the relative viability ([3]; first compound 1 µM) was 0.831. For the same cell line, the relative viability ([4]; first compound 0.01 µM) was 0.508, the relative viability ([4]; first compound 0.03162 µM) was 0.579 and the relative viability ([4]; first compound 0.1 µM) was 0.51. The relative viability ([4]; first compound 0.3162 µM) was 0.649 and the relative viability ([4]; first compound 1 µM) was 0.505.
